Source: patent US20210353579A1, “HIGH PENETRATION COMPOSITIONS AND USES THEREOF” (Techfields Pharma Co., Ltd., priority 2006, published 2021)
In brackets after ≈: the same amount, converted by molar mass. Read-outs that look alike come from different tables or passages of the source.

Columns and labels:
[1] = Plasma levels after transdermal administration to hairless mice; assay type: in vivo; conditions: for t, time to peak plasma level after parent compound: parent compound administered (time when taken orally); for Peak plasma concentration after parent compound: parent compound administered, hairless mice; for Peak plasma concentration of parent compound after prodrug compound / t, time to peak plasma level of parent compound after prodrug compound: mouse, in vivo
Experimental: Tested compounds (20% solution or suspension in 1 mL isopropanol) are administered transdermally to the skin of intact hairless mice. The plasma levels of the parent compounds are determined by HPLC.

human skin tissue = conditions: pH 7.4; for In vitro penetration rate (apparent flux), parent compounds: human, 20 %
in vivo = conditions: rat
Experimental: The acute toxicity of the prodrug compounds and parent compounds are measured by LD50 of rat.

[2] = Solubility in water / aqueous solubility of HPPs and parent drugs; conditions: for solubility: water
mice = test: Analgesic activity, acetic acid writhing; assay type: in vivo; conditions: 30 min before acetic acid
Experimental: The prodrug compounds are administered either transdermally or orally. The parent compounds are administered orally. The number of writhing that occurred when mice are administered the acetic acid solution are counted, and the rate of inhibition based on the control group which was not pretreated with any test compounds is calculated. […] The A group is the control group.

rats = test: Antipyretic activity, E. coli suspension as pyrogen; assay type: in vivo; conditions: in °C (unit assumed)
Experimental: Rats are administered with sterilized E. coli suspension as a pyrogen. Each group of rats are administered with a prodrug compounds or parent compounds at a dosage specified below. The prodrug compounds are administered either orally or transdermally. The parent compounds are administered orally.
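For LD50 in this document: acute toxicity in rats expressed as LD50, determined for both prodrugs and their parent compounds.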
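For LD50 of HPP in this document: acute toxicity in rats expressed as LD50, determined for both prodrugs and their parent compounds.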

Structure (SMILES): COc1ccc2c(c1)c(CC(=O)OCC(=O)O)c(C)n2C(=O)c1ccc(Cl)cc1 [Acemetacin, acemetacin]
- t, time to peak plasma level after parent compound [1]: 1 to 2 h
- Peak plasma concentration after parent compound [1]: 0.1 mg/L
- In vitro penetration rate (apparent flux), parent compounds (human skin tissue): 10 μg/cm^2/h
- LD50 (in vivo): 24 mg/kg
- solubility [2]: 100 µg/mL (≈ 240 µM)

Structure (SMILES): C=C(C)CNc1ccc(C(C)C(=O)O)cc1 (centres unmarked) [Alminoprofen, alminoprofen]
- t, time to peak plasma level after parent compound [1]: 2 to 4 h
- Peak plasma concentration after parent compound [1]: 10 mg/L
- In vitro penetration rate (apparent flux), parent compounds (human skin tissue): 30 μg/cm^2/h
- LD50 (in vivo): 2400 mg/kg
- solubility [2]: 100 µg/mL (≈ 456 µM)

Structure (SMILES): Nc1c(CC(=O)O)cccc1C(=O)c1ccccc1 [Amfenac, amfenac]
- t, time to peak plasma level after parent compound [1]: 1 to 2 h
- Peak plasma concentration after parent compound [1]: 0.1 mg/L
- In vitro penetration rate (apparent flux), parent compounds (human skin tissue): 10 μg/cm^2/h
- LD50 (in vivo): 310 mg/kg
- solubility [2]: 200 µg/mL (≈ 783 µM)

Structure (SMILES): CC(C(=O)O)c1ccc2oc(-c3ccc(Cl)cc3)nc2c1 (centres unmarked) [Benoxaprofen, benoxaprofen]
- t, time to peak plasma level after parent compound [1]: 2 to 4 h
- Peak plasma concentration after parent compound [1]: 10 mg/L
- In vitro penetration rate (apparent flux), parent compounds (human skin tissue): 40 μg/cm^2/h
- LD50 (in vivo): 800 mg/kg
- solubility [2]: 100 µg/mL (≈ 331 µM)

Structure (SMILES): CC(C(=O)O)c1ccc2c(c1)[nH]c1ccc(Cl)cc12 (centres unmarked) [Carprofen, carprofen]
- t, time to peak plasma level after parent compound [1]: 2 to 4 h
- Peak plasma concentration after parent compound [1]: 10 mg/L
- In vitro penetration rate (apparent flux), parent compounds (human skin tissue): 40 μg/cm^2/h
- LD50 (in vivo): 400 mg/kg
- solubility [2]: 100 µg/mL (≈ 365 µM)

Structure (SMILES): O=C(O)C1CCc2cc(C3CCCCC3)c(Cl)cc21 (centres unmarked) [Clidanac, clidanac]
- t, time to peak plasma level after parent compound [1]: 2 to 4 h
- Peak plasma concentration after parent compound [1]: 10 mg/L
- In vitro penetration rate (apparent flux), parent compounds (human skin tissue): 40 μg/cm^2/h
- LD50 (in vivo): 35 mg/kg
- solubility [2]: 100 µg/mL (≈ 359 µM)

Structure (SMILES): CCc1cccc2c3c([nH]c12)C(CC)(CC(=O)O)OCC3 (centres unmarked) [Etodolac, etodolac]
- t, time to peak plasma level after parent compound [1]: 1 to 2 h
- Peak plasma concentration after parent compound [1]: 0.1 mg/L
- In vitro penetration rate (apparent flux), parent compounds (human skin tissue): 10 μg/cm^2/h
- LD50 (in vivo): 460 mg/kg
- solubility [2]: 100 µg/mL (≈ 348 µM)

Structure (SMILES): O=C(O)Cc1ccccc1Oc1ccc(Cl)cc1Cl [Fenclofenac, fenclofenac]
- t, time to peak plasma level after parent compound [1]: 1 to 2 h
- Peak plasma concentration after parent compound [1]: 0.1 mg/L
- In vitro penetration rate (apparent flux), parent compounds (human skin tissue): 10 μg/cm^2/h
- LD50 (in vivo): 2280 mg/kg
- solubility [2]: 100 µg/mL (≈ 337 µM)

Structure (SMILES): O=C(O)Cc1sc(-c2ccccc2)nc1-c1ccc(Cl)cc1 [Fentiazac, fentiazac, reference compound]
- t, time to peak plasma level after parent compound [1]: 1 to 2 h
- Peak plasma concentration after parent compound [1]: 0.1 mg/L
- In vitro penetration rate (apparent flux), parent compounds (human skin tissue): 10 μg/cm^2/h
- LD50 (in vivo): 700 mg/kg

Structure (SMILES): CC(C)Cc1ccc(C(C)C(=O)O)cc1 (centres unmarked) [Ibuprofen, 2-(ρ-isobutylphenyl) propionic acid, reference compound]
- t, time to peak plasma level after parent compound [1]: 1 to 2 h
- Peak plasma concentration after parent compound [1]: 2 mg/L
- No. of Writhing (mice; 50 mg/kg orally): 17.2
- No. of Writhing (mice; 100 mg/kg orally): 13.1
- inhibition at 50 mg/kg (mice; Mus musculus, po, 50 mg/kg orally, read-out: % (rate of writhing inhibition)): 50%
- inhibition at 100 mg/kg (mice; Mus musculus, po, 100 mg/kg orally, read-out: % (rate of writhing inhibition)): 62%
- body temperature, t = 0 min (rats; 100 mg/kg orally): 37.25 ± 0.06
- body temperature, t = 90 min (rats; 100 mg/kg orally): 36.83 ± 0.05
- body temperature, t = 180 min (rats; 100 mg/kg orally): 36.80 ± 0.08
- body temperature, t = 270 min (rats; 100 mg/kg orally): 36.78 ± 0.07
- body temperature, t = 0 min (rats; 150 mg/kg orally): 37.35 ± 0.09
- body temperature, t = 90 min (rats; 150 mg/kg orally): 36.59 ± 0.07
- body temperature, t = 180 min (rats; 150 mg/kg orally): 36.53 ± 0.06
- body temperature, t = 270 min (rats; 150 mg/kg orally): 36.55 ± 0.05
- In vitro penetration rate (apparent flux), parent compounds (human skin tissue): 50 μg/cm^2/h
- LD50 (in vivo): 1500 mg/kg

Structure (SMILES): O=C(O)Cc1cn(-c2ccccc2)nc1-c1ccc(Cl)cc1 [Lonazolac, lonazolac, reference compound]
- t, time to peak plasma level after parent compound [1]: 1 to 2 h
- Peak plasma concentration after parent compound [1]: 0.1 mg/L
- LD50 (in vivo): 1000 mg/kg
- solubility [2]: 100 µg/mL (≈ 320 µM)

Structure (SMILES): CC(=O)O.CCN(CC)CCOC(=O)CC1=C(C)/C(=C/c2ccc([S+](C)[O-])cc2)c2ccc(F)cc21 (centres unmarked) [diethylaminoethyl (Z)-5-fluoro-2-methyl-1-[(4-methylsulfinyl)phenylmethylene]-1H-indene-3-acetate.AcOH]
- Peak plasma concentration of parent compound after prodrug compound [1]: 20 mg/L
- t, time to peak plasma level of parent compound after prodrug compound [1]: 50 min
- % (rate of writhing inhibition) (mice; 100 mg/kg transdermally): 59%
- No. of Writhing (mice; 100 mg/kg transdermally): 14.2
- body temperature, t = 0 min (rats; 100 mg/kg transdermally): 37.28 ± 0.06
- body temperature, t = 90 min (rats; 100 mg/kg transdermally): 36.65 ± 0.05
- body temperature, t = 180 min (rats; 100 mg/kg transdermally): 36.62 ± 0.08
- body temperature, t = 270 min (rats; 100 mg/kg transdermally): 36.58 ± 0.07
- In vitro penetration rate (apparent flux), prodrug compounds (human skin tissue): 900 μg/cm^2/h
- LD50 of HPP (rat; rats): 500 mg/kg

Structure (SMILES): CC(=O)O.CCN(CC)CCOC(=O)C(Cl)c1ccc(C2CCCCC2)c(Cl)c1 (stereo not drawn) [diethylaminoethyl α,3-dichloro-4-cyclohexylbenzeneacetate.AcOH]
- Peak plasma concentration of parent compound after prodrug compound [1]: 2000 mg/L
- t, time to peak plasma level of parent compound after prodrug compound [1]: 50 min
- % (rate of writhing inhibition) (mice; 100 mg/kg transdermally): 57%
- No. of Writhing (mice; 100 mg/kg transdermally): 15.2
- body temperature, t = 0 min (rats; 100 mg/kg transdermally): 37.25 ± 0.06
- body temperature, t = 90 min (rats; 100 mg/kg transdermally): 36.75 ± 0.05
- body temperature, t = 180 min (rats; 100 mg/kg transdermally): 36.62 ± 0.08
- body temperature, t = 270 min (rats; 100 mg/kg transdermally): 36.58 ± 0.07
- In vitro penetration rate (apparent flux), prodrug compounds (human skin tissue): 3800 μg/cm^2/h
- LD50 of HPP (rat; rats): 600 mg/kg

Structure (SMILES): CC(=O)O.CCN(CC)CCOC(=O)C(C)c1ccc(C(=O)c2cccs2)cc1 (stereo not drawn) [diethylaminoethyl α-methyl-4-(2-thienylcarbonyl)benzeneacetate.AcOH]
- Peak plasma concentration of parent compound after prodrug compound [1]: 2000 mg/L
- t, time to peak plasma level of parent compound after prodrug compound [1]: 50 min
- % (rate of writhing inhibition) (mice; 100 mg/kg transdermally): 55%
- No. of Writhing (mice; 100 mg/kg transdermally): 15.7
- body temperature, t = 0 min (rats; 100 mg/kg transdermally): 37.28 ± 0.06
- body temperature, t = 90 min (rats; 100 mg/kg transdermally): 36.65 ± 0.06
- body temperature, t = 180 min (rats; 100 mg/kg transdermally): 36.58 ± 0.08
- body temperature, t = 270 min (rats; 100 mg/kg transdermally): 36.45 ± 0.07
- In vitro penetration rate (apparent flux), prodrug compounds (human skin tissue): 3000 μg/cm^2/h
- LD50 of HPP (rat; rats): 800 mg/kg

Structure (SMILES): C=C(C)CNc1ccc(C(C)C(=O)OCCN(CC)CC)cc1.CC(=O)O (stereo not drawn) [diethylaminoethyl α-methyl-4-[(2-methyl-2-propenyl)amino]benzeneacetate.AcOH]
- Peak plasma concentration of parent compound after prodrug compound [1]: 2000 mg/L
- t, time to peak plasma level of parent compound after prodrug compound [1]: 50 min
- % (rate of writhing inhibition) (mice; 100 mg/kg transdermally): 55%
- No. of Writhing (mice; 100 mg/kg transdermally): 15.6
- body temperature, t = 0 min (rats; 100 mg/kg transdermally): 37.23 ± 0.06
- body temperature, t = 90 min (rats; 100 mg/kg transdermally): 36.69 ± 0.06
- body temperature, t = 180 min (rats; 100 mg/kg transdermally): 36.52 ± 0.08
- body temperature, t = 270 min (rats; 100 mg/kg transdermally): 36.40 ± 0.07
- In vitro penetration rate (apparent flux), prodrug compounds (human skin tissue): 3500 μg/cm^2/h
- LD50 of HPP (rat; rats): 1100 mg/kg

Structure (SMILES): CC(=O)O.CCN(CC)CCOC(=O)C(C)c1ccc2c(c1)Cc1cccnc1O2 (stereo not drawn) [diethylaminoethyl α-methyl-5H-[1]benzopyrano[2,3-b]pyridine-7-acetate.AcOH]
- Peak plasma concentration of parent compound after prodrug compound [1]: 2000 mg/L
- t, time to peak plasma level of parent compound after prodrug compound [1]: 50 min
- % (rate of writhing inhibition) (mice; 100 mg/kg transdermally): 54%
- No. of Writhing (mice; 100 mg/kg transdermally): 16.1
- body temperature, t = 0 min (rats; 100 mg/kg transdermally): 37.27 ± 0.06
- body temperature, t = 90 min (rats; 100 mg/kg transdermally): 36.76 ± 0.05
- body temperature, t = 180 min (rats; 100 mg/kg transdermally): 36.65 ± 0.08
- body temperature, t = 270 min (rats; 100 mg/kg transdermally): 36.49 ± 0.07
- In vitro penetration rate (apparent flux), prodrug compounds (human skin tissue): 3800 μg/cm^2/h
- LD50 of HPP (rat; rat, in vivo): 750 mg/kg

Structure (SMILES): CC(=O)O.CN(C)CCOC(=O)Cc1ccccc1Nc1c(Cl)cccc1Cl [dimethylaminoethyl 2[(2,6-dichlorophenyl)amino] benzene acetate.AcOH]
- LD50 of HPP (rat; rat, in vivo): 700 mg/kg
- Solubility in water ([2]; product as prepared in Example 1): 410000 µg/mL
